Common to all, as to assay type: biochemical
Assay [1] has as its system Lipase (Lipex 100L). Briefly: Storage stability in Detergent C with Savinase, residual lipase activity after 4 weeks at 30° C. The following applies: increase from dose 1 to dose 2. As for the experimental part: (§1) Further the following detergents with protease inhibitors were prepared. The detergents were placed in closed glasses at 30° C. Residual activity of lipase and protease was measured (by comparison to a reference stored at −18° C.) after 4 weeks, using standard enzyme analytical methods (protease measured by hydrolysis of N,N-dimethylcasein at 40° C., pH 8.3 and lipase measured by hydrolysis of p-nitrophenyl valerate at 40° C., pH 7.7). Z-GA-NHCH(CH2C6H4OH)CH(OH)SO3Na was added in a concentration of 8.1 mg/L (dose 1) and 16.1 mg/L (dose 2). 4-FPBA was added in a concentration of 80 mg/L (dose 1) and 160 mg/L (dose 2).

For assay [2], the target named is T1, Savinase (Lederbergia lenta, UniProt P29600).
T1 sequence (P29600 1-269): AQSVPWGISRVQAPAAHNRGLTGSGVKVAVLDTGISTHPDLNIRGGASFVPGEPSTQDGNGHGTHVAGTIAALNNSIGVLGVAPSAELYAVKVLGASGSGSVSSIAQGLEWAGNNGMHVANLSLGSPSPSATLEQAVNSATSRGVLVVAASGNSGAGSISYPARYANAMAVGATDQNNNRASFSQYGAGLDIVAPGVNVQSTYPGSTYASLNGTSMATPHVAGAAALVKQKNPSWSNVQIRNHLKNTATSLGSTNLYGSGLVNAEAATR
Briefly: Storage stability in Detergent M, residual protease activity after 1 week at 40° C. The following applies: for Residual activity at dose 1 / Residual activity at dose 2 / Inhibitor dose 1: 1 week 40° C. vs −18° C. reference; for Inhibitor dose 1: dose 1 = concentration C found by interpolation; for ((residual activity at dose 2) − (residual activity at dose 1))/((residual activity at dose 1) − (residual activity at no inhibitor)): criterion that defines dose 1; for Inhibitor dose 2: dose 2 = 2×dose 1. The text has this: An inhibitor concentration C is defined, so that when the inhibitor concentration is doubled from a concentration of C to a concentration of 2C (i.e., 2C=2×C), the residual protease activity increases (“residual protease activity at 2C”−“residual protease activity at C”) by 25% of the residual protease activity increase from no inhibitor to C (“residual protease activity at C”−“residual activity at no inhibitor”). “No inhibitor” means that the concentration of inhibitor is zero.
The test system to determine “dose 1” (C) and “dose 2” (2C) is described in Example 1. A model detergent system is used (detergent A) and protease, lipase, and different concentrations of protease inhibitor are added (detergent M). Residual protease activity is determined by comparing activity after storage for 1 week at 40° C. with 1 week at −18° C. The data are used to prepare a dose response curve which is used to identify the inhibitor concentration C.
Various peptide aldehydes were produced by a custom peptide synthesis company, all with a purity>80%. The peptide aldehydes were dissolved in DMSO to a concentration of 10 mg/mL before use.
Further the following detergents with protease inhibitors were prepared. The detergents were placed in closed glasses at 40° C. Residual activity of protease was measured (by comparison to a reference stored at −18° C.) after 1 week, using standard enzyme analytical methods (protease measured by hydrolysis of N,N-dimethylcasein at 40° C., pH 8.3). The inhibitor levels tested relative to protease were in the range 0.5-500 molar ratio (inhibitor:protease). The data points were connected and the inhibitor dose 1 and dose 2 were determined by interpolation so that ((residual protease activity at dose 2)−(residual protease activity at dose 1))/((residual protease activity at dose 1)−(residual protease activity at no inhibitor))=0.25; and dose 2=2×dose 1.

The target of assay [3] is T1, Savinase. Briefly: Storage stability in Detergent C, residual protease activity after 4 weeks at 30° C. Particulars: Detergent C with Savinase; for %-points per dose (residual protease activity): increase from dose 1 to dose 2. As for the experimental part:
as §1

The subject of assay [4] is Lipase (Lipex 100L). Briefly: Storage stability in Detergent C with Liquanase, residual lipase activity after 4 weeks at 30° C. The following applies: increase from dose 1 to dose 2. On the procedure: as §1
Target sequence in this assay (O59952 23-291 T253R/N255R): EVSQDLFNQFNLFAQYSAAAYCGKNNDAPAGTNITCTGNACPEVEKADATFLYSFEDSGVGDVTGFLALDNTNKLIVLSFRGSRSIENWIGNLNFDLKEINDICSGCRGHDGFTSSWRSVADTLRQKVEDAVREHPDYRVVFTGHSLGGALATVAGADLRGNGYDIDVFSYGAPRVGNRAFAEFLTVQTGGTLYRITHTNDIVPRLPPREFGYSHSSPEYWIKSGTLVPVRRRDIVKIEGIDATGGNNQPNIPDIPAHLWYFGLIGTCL
Assay [5] deals with Lipase (Lipex 100L). Briefly: Storage stability in Detergent B (with Savinase), residual lipase activity after 4 weeks at 30° C. The following applies: increase from dose 1 (12.9 mg/L) to dose 2 (26.0 mg/L). As for the experimental part:
(§2) Further the following detergents with protease inhibitors were prepared. The detergents were placed in closed glasses at 30° C. Residual activity of lipase and protease was measured (by comparison to a reference stored at −18° C.) after 4 weeks, using standard enzyme analytical methods (protease measured by hydrolysis of N,N-dimethylcasein at 40° C., pH 8.3 and lipase measured by hydrolysis of p-nitrophenyl valerate at 40° C., pH 7.7). Z-GA-NHCH(CH2C6H4OH)CH(OH)SO3Na was added in a concentration of 12.9 mg/L (dose 1) and 26.0 mg/L (dose 2).
Target sequence in this assay (O59952 23-291 T253R/N255R): as above

For assay [6], the target named is T2, Protease (Savinase 16L) (Lederbergia lenta, UniProt P29600).
T2 sequence (P29600 1-269): T1 sequence (P29600 1-269)
Briefly: Storage stability in Detergent B, residual protease activity after 4 weeks at 30° C. The following applies: increase from dose 1 (12.9 mg/L) to dose 2 (26.0 mg/L). As for the experimental part: as §2

Assay [7] has as its system Liquanase. Briefly: Storage stability in Detergent C, residual protease activity after 4 weeks at 30° C. The following applies: Detergent C with Liquanase; increase from dose 1 to dose 2. On the procedure:
as §1

Regarding `O=Cc1ccc(B(O)O)cc1` [4-FPBA, 4-formyl-phenyl-boronic acid], the “%-points per dose (residual lipase activity)” value in assay [1] stood at 16%. For the same molecule, in assay [2], the “Residual activity at dose 1” value is listed as 63%, the “Residual activity at dose 2” value was 75%, the “Inhibitor dose 1” value stood at 91 mg/mL and the “((residual activity at dose 2) − (residual activity at dose 1))/((residual activity at dose 1) − (residual activity at no inhibitor))” value stood at 25%. Also, the “Inhibitor dose 2” value in assay [2] was 182 mg/mL. Also, in assay [3] (4 weeks 30° C. vs −18° C. reference, dose 1: Z-GA-NHCH(CH2C6H4OH)CH(OH)SO3Na 8.1 mg/L, 4-FPBA 80 mg/L, read-out: Inhibitor dose 1 (residual protease activity)), the remaining activity at 80 µg/mL is 98%. Further, the remaining activity at 160 µg/mL in assay [3] (4 weeks 30° C. vs −18° C. reference, dose 2: Z-GA-NHCH(CH2C6H4OH)CH(OH)SO3Na 16.1 mg/L, 4-FPBA 160 mg/L, read-out: Inhibitor dose 2 (residual protease activity)) came to 98%. The “%-points per dose (residual protease activity)” value in assay [3] is 0%.

As for Cbz-Gly-Ala-Leu-H [Z-GAL-H], in assay [2], the “Residual activity at dose 1” value was 50%, the “Residual activity at dose 2” value was 60%, the “Inhibitor dose 1” value amounted to 5.7 mg/mL and the “((residual activity at dose 2) − (residual activity at dose 1))/((residual activity at dose 1) − (residual activity at no inhibitor))” value is 25%. Besides, the “Inhibitor dose 2” value in assay [2] amounted to 11.5 mg/mL.

In the case of Cbz-Gly-Ala-Phe-H [Z-GAF-H], in assay [2], the “Residual activity at dose 1” value came to 75%, the “Residual activity at dose 2” value amounted to 90%, the “Inhibitor dose 1” value is 18.7 mg/mL and the “((residual activity at dose 2) − (residual activity at dose 1))/((residual activity at dose 1) − (residual activity at no inhibitor))” value was found to be 25%. The “Inhibitor dose 2” value in assay [2] amounted to 37.5 mg/mL.

Turning to Z-GA-NHCH(CH2C6H4OH)CH(OH)SO3Na, the results for the “%-points per dose (residual lipase activity)” value in assay [1], in assay [4] and in assay [5] were 21%, 25% and 30%, respectively. The “Inhibitor dose 1” value in assay [2] is 8.1 mg/mL. For the same molecule, the “((residual activity at dose 2) − (residual activity at dose 1))/((residual activity at dose 1) − (residual activity at no inhibitor))” value in assay [2] was found to be 25%. The “Inhibitor dose 2” value in assay [2] is given as 16.1 mg/mL. Besides, the “%-points per dose (residual protease activity)” value came to 10% in assay [6], 9% in assay [3] and 0% in assay [7].

The values are drawn from patent US20170121646A1, “Improved Stabilization of Non-Protease Enzyme” (Novozymes A/S, priority 2014, published 2017).
